Key:
[1] = MTMD (Maximum Tolerated Multiple Dose) determination, iv weekly x 3; format: in vivo; conditions: mice; iv/Q7d × 3
Description: Female CD-1 or Athymic Nude-Fox1 nu/nu mice (Envigo) were utilized for all experiments. […] Animals were acclimated for five days prior to being individually tattoo-identified. Animal protocols were reviewed and approved according to the regional Institutional Animal Care and Use Committees.
Mice were randomly allocated into experimental groups and intravenously administered, once for the MTD (Maximum Tolerated Dose) determination or one administration a week during three consecutive weeks, for the MTMD (Maximum Tolerated Multiple Dose) determination study. The animals were administered with white formulation or with compound dissolved in the experimental formulation at different concentrations. The volume administered was always […]. Once administered, animals were monitored for clinical signs of systemic toxicity, changes in body weight and mortality up to 14 days after the administration.

HT1080 tumors = conditions: Day 0

## COc1c(C)cc2c(c1O)[C@@H]1[C@@H]3[C@@H]4SC[C@]5(NCCc6c5oc5ccccc65)C(=O)OC[C@@H](c5c6c(c(C)c(OC(C)=O)c54)OCO6)N3[C@@H](O)[C@H](C2)N1C [Compound 32]
[1]
  MTMD: 0.5 mg/kg
HT1080 tumors
  Total diameter (tumor + leg): 7.5 mm

Reference: patent publication US12384800B2, “Antitumoral compounds” (priority 2017, dated 2025)
